Experimental data from patent US20260274818A1, “HETEROCYCLOALKYL BETA-HYDROXY ALKYL AMINES FOR USE IN THE TREATMENT OF HYPERGLYCAEMIA AND DISORDERS CHARACTERISED BY HYPERGLYCAEMIA” (ATROGI AB, priority 2023, published 2026).
Counter-ions that a name gives are not always drawn.

Columns and labels:
[1] = system: L6-myotubes; assay: Glucose uptake (3H-2-deoxyglucose) in differentiated L6-myotubes; format: cell-based; settings: compound at 10 μM vs isoproterenol at 10 μM
Procedure: (§1) L6-myoblasts were grown in Dulbecco's Modified Eagle's Medium (DMEM) containing 1 g/L glucose supplemented with 10% fetal bovine serum, 2 mM L-Glutamine, 50 U/mL penicillin, […] streptomycin and 10 mM HEPES. Cells were plated at 1×10^5 cells per mL in 24-well plates. After reaching 90% confluence the cells were grown in medium containing 2% FBS for 7 days where upon cells differentiated into myotubes.
Differentiated L6-myotubes were serum-starved overnight in medium containing 0.5% fatty-acid free BSA and stimulated with an agonist, with a final concentration of 1×10^−5 M. After 1 h 40 min the cells were washed with warm glucose free medium or PBS twice and another portion of agonist was added to the glucose free medium. After 20 min the cells were exposed to 50 nM ^3H-2-deoxyglucose for another 10 min before washed in ice cold glucose free medium or PBS three times and lysed in 400 μL/well 0.2 M NaOH for 1 h at 60° C. The cell lysate was mixed with 4 mL scintillation buffer (Emulsifier Safe, Perkin Elmer) and the radioactivity was detected in a β-counter (Tri-Carb 4810TR, Perkin Elmer). The activity for each compound is compared to that of isoproterenol.

[2] = system: Intracellular cAMP; assay: Measurement of intracellular cAMP levels in differentiated L6 cells (alpha screen cAMP kit); format: cell-based; settings: compound at 10 μM for 15 min vs isoproterenol at 10 μM
Procedure: as §1
Differentiated cells were serum-starved overnight and stimulated with an agonist, final concentration 1×10^−5 M, for 15 min in stimulation buffer (HBSS supplemented with 1% BSA, 5 mM HEPES and 1 mM IBMX, pH 7.4). The medium was aspirated and 100 μL of 95% EtOH was added to each well of the 24-well plate and cells were kept at −20° C. overnight. The EtOH was allowed to evaporate and 500 μL of lysis buffer (1% BSA, 5 mM HEPES and 0.3% Tween-20, pH 7.4) was added to each well. The plate was kept at −80° C. for 30 min and then at −20° C. until the day of detection when the samples were thawed. Intracellular cAMP levels were detected using an alpha screen cAMP kit (6760635D from Perkin Elmer). The activity for each compound is compared to that of isoproterenol.

## OC(c1cccc(F)c1)[C@H]1CC[C@@H](CC2CCCNC2)N1 (stereo in doubt) [Example 3, (S)-(3-Fluorophenyl)((2R,5S)-5-(((R)-piperidin-3-yl)methyl)pyrrolidin-2-yl)methanol dihydrochloride]
[1]
  Biological example 1: glucose uptake, activity compared to that of isoproterenol: + (if it is between 50 and 25% it is denoted with +)
[2]
  Biological example 2: intracellular cAMP levels, activity compared to that of isoproterenol: − (if it less than 25% it is denoted with −)

## OC(c1cccc(F)c1)[C@H]1CC[C@@H](CC2CCCNC2)N1 (stereo in doubt) [Example 6, (R)-(3-Fluorophenyl)((2R,5S)-5-(((S)-piperidin-3-yl)methyl)pyrrolidin-2-yl)methanol dihydrochloride]
[1]
  Biological example 1: glucose uptake, activity compared to that of isoproterenol: +++ (more than 75% of that of isoproterenol at 10 μM, the activity is denoted with +++)
[2]
  Biological example 2: intracellular cAMP levels, activity compared to that of isoproterenol: − (if it less than 25% it is denoted with −)

## O[C@H](c1cccc(F)c1)[C@H]1CC[C@@H](CC2CCNCC2)N1 [Example 1, (R)-(3-Fluorophenyl)((2R,5S)-5-(piperidin-4-ylmethyl)pyrrolidin-2-yl)-methanol dihydrochloride]
[1]
  Biological example 1: glucose uptake, activity compared to that of isoproterenol: ++ (if it is between 75 and 50% it is denoted with ++)
[2]
  Biological example 2: intracellular cAMP levels, activity compared to that of isoproterenol: − (if it less than 25% it is denoted with −)

## O[C@@H](c1cccc(F)c1)[C@H]1CC[C@@H](CC2CCNCC2)N1 [Example 2, (S)-(3-Fluorophenyl)((2R,5S)-5-(piperidin-4-ylmethyl)pyrrolidin-2-yl)-methanol dihydrochloride]
[1]
  Biological example 1: glucose uptake, activity compared to that of isoproterenol: + (if it is between 50 and 25% it is denoted with +)
[2]
  Biological example 2: intracellular cAMP levels, activity compared to that of isoproterenol: − (if it less than 25% it is denoted with −)

## O[C@@H](c1cccc(F)c1)[C@H]1CC[C@@H](C[C@@H]2CCCNC2)N1 [Example 4, (S)-(3-Fluorophenyl)((2R,5S)-5-(((S)-piperidin-3-yl)methyl)pyrrolidin-2-yl)methanol dihydrochloride]
[1]
  Biological example 1: glucose uptake, activity compared to that of isoproterenol: ++ (if it is between 75 and 50% it is denoted with ++)
[2]
  Biological example 2: intracellular cAMP levels, activity compared to that of isoproterenol: − (if it less than 25% it is denoted with −)

## O[C@H](c1cccc(F)c1)[C@H]1CC[C@@H](C[C@H]2CCCNC2)N1 [Example 5, (R)-(3-Fluorophenyl)((2R,5S)-5-(((R)-piperidin-3-yl)methyl)pyrrolidin-2-yl)methanol dihydrochloride]
[1]
  Biological example 1: glucose uptake, activity compared to that of isoproterenol: ++ (if it is between 75 and 50% it is denoted with ++)
[2]
  Biological example 2: intracellular cAMP levels, activity compared to that of isoproterenol: − (if it less than 25% it is denoted with −)

## CS(=O)(=O)N1CCC(C[C@@H]2CC[C@H]([C@H](O)c3cccc(F)c3)N2)CC1.Cl [Example 7, (R)-(3-Fluorophenyl)((2R,5S)-5-((1-(methylsulfonyl)piperidin-4-yl)-methyl)pyrrolidin-2-yl)methanol hydrochloride]
[1]
  Biological example 1: glucose uptake, activity compared to that of isoproterenol: +++ (more than 75% of that of isoproterenol at 10 μM, the activity is denoted with +++)
[2]
  Biological example 2: intracellular cAMP levels, activity compared to that of isoproterenol: − (if it less than 25% it is denoted with −)

## CS(=O)(=O)N1CCC(C[C@@H]2CC[C@H]([C@@H](O)c3cccc(F)c3)N2)CC1.Cl [Example 8, (S)-(3-Fluorophenyl)((2R,5S)-5-((1-(methylsulfonyl)piperidin-4-yl)-methyl)pyrrolidin-2-yl)methanol hydrochloride]
[1]
  Biological example 1: glucose uptake, activity compared to that of isoproterenol: ++ (if it is between 75 and 50% it is denoted with ++)
[2]
  Biological example 2: intracellular cAMP levels, activity compared to that of isoproterenol: − (if it less than 25% it is denoted with −)

## CC(=O)N1CCC(C[C@@H]2CC[C@H]([C@H](O)c3cccc(F)c3)N2)CC1.Cl [Example 9, 1-(4-(((2S,5R)-5-((R)-(3-Fluorophenyl)(hydroxy)methyl)pyrrolidin-2-yl)methyl)piperidin-1-yl)ethan-1-one hydrochloride]
[1]
  Biological example 1: glucose uptake, activity compared to that of isoproterenol: +++ (more than 75% of that of isoproterenol at 10 μM, the activity is denoted with +++)
[2]
  Biological example 2: intracellular cAMP levels, activity compared to that of isoproterenol: − (if it less than 25% it is denoted with −)

## CC(=O)N1CCC(C[C@@H]2CC[C@H]([C@@H](O)c3cccc(F)c3)N2)CC1.Cl [Example 10, 1-(4-(((2S,5R)-5-((S)-(3-Fluorophenyl)(hydroxy)methyl)pyrrolidin-2-yl)methyl)piperidin-1-yl)ethan-1-one hydrochloride]
[1]
  Biological example 1: glucose uptake, activity compared to that of isoproterenol: − (if it less than 25% it is denoted with −)
[2]
  Biological example 2: intracellular cAMP levels, activity compared to that of isoproterenol: − (if it less than 25% it is denoted with −)

## CS(=O)(=O)N1CCC[C@H](C[C@@H]2CC[C@H]([C@@H](O)c3cccc(F)c3)N2)C1.Cl [Example 11, (S)-(3-Fluorophenyl)((2R,5S)-5-(((R)-1-(methylsulfonyl)piperidin-3-yl)methyl)pyrrolidin-2-yl)methanol hydrochloride]
[1]
  Biological example 1: glucose uptake, activity compared to that of isoproterenol: + (if it is between 50 and 25% it is denoted with +)
[2]
  Biological example 2: intracellular cAMP levels, activity compared to that of isoproterenol: − (if it less than 25% it is denoted with −)

## CS(=O)(=O)N1CCC[C@H](C[C@@H]2CC[C@H]([C@H](O)c3cccc(F)c3)N2)C1.Cl [Example 12, (R)-(3-Fluorophenyl)((2R,5S)-5-(((R)-1-(methylsulfonyl)piperidin-3-yl)methyl)pyrrolidin-2-yl)methanol hydrochloride]
[1]
  Biological example 1: glucose uptake, activity compared to that of isoproterenol: +++ (more than 75% of that of isoproterenol at 10 μM, the activity is denoted with +++)
[2]
  Biological example 2: intracellular cAMP levels, activity compared to that of isoproterenol: − (if it less than 25% it is denoted with −)

## CS(=O)(=O)N1CCC[C@@H](C[C@@H]2CC[C@H]([C@@H](O)c3cccc(F)c3)N2)C1.Cl [Example 13, (S)-(3-Fluorophenyl)((2R,5S)-5-(((S)-1-(methylsulfonyl)piperidin-3-yl)methyl)pyrrolidin-2-yl)methanol hydrochloride]
[1]
  Biological example 1: glucose uptake, activity compared to that of isoproterenol: ++ (if it is between 75 and 50% it is denoted with ++)
[2]
  Biological example 2: intracellular cAMP levels, activity compared to that of isoproterenol: − (if it less than 25% it is denoted with −)

## CS(=O)(=O)N1CCC[C@@H](C[C@@H]2CC[C@H]([C@H](O)c3cccc(F)c3)N2)C1.Cl [Example 14, (R)-(3-Fluorophenyl)((2R,5S)-5-(((S)-1-(methylsulfonyl)piperidin-3-yl)methyl)pyrrolidin-2-yl)methanol hydrochloride]
[1]
  Biological example 1: glucose uptake, activity compared to that of isoproterenol: +++ (more than 75% of that of isoproterenol at 10 μM, the activity is denoted with +++)
[2]
  Biological example 2: intracellular cAMP levels, activity compared to that of isoproterenol: − (if it less than 25% it is denoted with −)

## Cl.O[C@@H](c1cccc(F)c1)[C@H]1CC[C@@H](CC2CCOCC2)N1 [Example 15, (S)-(3-Fluorophenyl)((2R,5S)-5-((tetrahydro-2H-pyran-4-yl)methyl)-pyrrolidin-2-yl)methanol hydrochloride]
[1]
  Biological example 1: glucose uptake, activity compared to that of isoproterenol: ++ (if it is between 75 and 50% it is denoted with ++)
[2]
  Biological example 2: intracellular cAMP levels, activity compared to that of isoproterenol: − (if it less than 25% it is denoted with −)

## Cl.O[C@H](c1cccc(F)c1)[C@H]1CC[C@@H](CC2CCOCC2)N1 [Example 16, (R)-(3-Fluorophenyl)((2R,5S)-5-((tetrahydro-2H-pyran-4-yl)methyl)-pyrrolidin-2-yl)methanol hydrochloride]
[1]
  Biological example 1: glucose uptake, activity compared to that of isoproterenol: +++ (more than 75% of that of isoproterenol at 10 μM, the activity is denoted with +++)
[2]
  Biological example 2: intracellular cAMP levels, activity compared to that of isoproterenol: + (if it is between 50 and 25% it is denoted with +)
